# Measured values from patent US20060104944A1, “Activators and inhibitors of protease activated receptor2 (PAR2) and methods of use” (priority 2004, published 2006).
# No end group written: not given here. *: point of attachment. tc = trans-cinnamoyl N-cap, O=C(/C=C/c1ccccc1)*; code O = not defined here
# Experiments:
# PAR-2 [1] = target: T1, PAR-2 (Homo sapiens, UniProt P55085); settings: at PAR-2; in words; cited from earlier work
# T1 sequence (P55085 26-397): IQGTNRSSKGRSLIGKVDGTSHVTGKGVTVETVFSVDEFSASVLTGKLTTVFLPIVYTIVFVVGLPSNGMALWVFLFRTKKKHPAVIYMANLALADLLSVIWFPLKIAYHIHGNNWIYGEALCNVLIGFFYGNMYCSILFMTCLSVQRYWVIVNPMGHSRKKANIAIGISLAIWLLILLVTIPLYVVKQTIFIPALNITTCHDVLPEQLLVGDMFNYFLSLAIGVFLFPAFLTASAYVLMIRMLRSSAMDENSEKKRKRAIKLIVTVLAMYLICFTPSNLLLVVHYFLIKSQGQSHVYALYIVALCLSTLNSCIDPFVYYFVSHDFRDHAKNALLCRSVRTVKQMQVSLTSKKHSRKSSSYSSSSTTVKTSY
# [2] = system: isolated blood vessel preparations; settings: in words, cited from earlier work
# [3] = system: Human umbilical vein endothelial cells (HUVEC); assay: Endothelial cell tube formation on Matrigel; format: cell-based; settings: agent alone; FGF2 0.1 μg, PAR2 agonist 0.25 μg; n = 3
# Method: Differentiation by endothelial cells was examined using a method developed by Grant et al. (Grant et al., In Vitro Cell Dev. Biol., 27A:327-336 (1991), which is hereby incorporated by reference in its entirety). Matrigel® matrix, phenol-red free (commercially available from Becton Dickinson, Bedford, Mass.) was thawed overnight at 4° C. Using cold pipette tips, 3.0 mg/well of Matrigel® matrix was placed in a cold twenty-four-multiwell plate (Falcon). Matrigel® matrix was allowed to polymerize during incubation at 37° C. for 30 minutes.
# Human umbilical vein endothelial cells (HUVEC) were maintained at 37° C. with 5% CO2 and 95% humidity in endothelial cell growth medium with 2% fetal bovine serum (EGM). The tube assay was performed in endothelial cell basal medium (EBM) supplemented with 0.5% bovine serum albumin (BSA) and 1:100 diluted Insulin-Transferrin-Selenium-G supplement (I-T-Se, 100×). HUVEC were trypsinized, centrifuged, and, subsequently, washed twice in phosphate buffered saline (PBS). […] Digital images of micro-titer well sections were collected using a DKC5000 3-CCD color video camera system (Toshiba America, New York, N.Y.) and analyzed using Image-Pro Plus software (Media Cybernetics, Silver Spring, Md.). The area and major axis length of stained cells having a tubular morphology was measured on the Matrigel® matrix surface (Becton Dickinson, Bedford, Pa.).
# [4] = system: chick chorioallantoic membrane (CAM); assay: Neovascularization in the chick chorioallantoic membrane (CAM) model; format: in vivo; settings: for PAR2-induced angiogenesis in the CAM model: in words, FIG. 3, Table 5; for Branch Points ± SEM: Table 3, agent alone: FGF2 1 ug/ml, VEGF 2 ug/ml, PAR-1 3 ug, PAR-2 0.3 ug, n = 8; for Mean Number of Branch Points ± SD: Table 4, agent alone: FGF2 1.0 μg, PAR2 agonist 5.0 μg, TF/factor VIIa, N = 16
# Method: In vivo neovascularization was examined by the method previously described by Auerbach et al. (Auerbach et al., J. Dev. Biol., 41:391-394 (1974), which is hereby incorporated by reference in its entirety). Ten-day old embryos were purchased from Spafas, Inc. (Preston, Conn.) and were incubated at 37° C. with 55% relative humidity. In the dark with the help of a candling lamp, a small hole was punctured in the shell concealing the air sac with a hypodermic needle. A second hole was punctured in the shell on the broadside of the egg directly over an avascular portion of the embryonic membrane, as observed during candling. A false air sac was created beneath the second hole by the application of negative pressure to the first hole, which caused the chorioallantoic membrane (CAM) to separate from the shell. A window, approximately 1.0 cm^2, was cut in the shell over the dropped CAM with the use of a small crafts grinding wheel (Dremel, Division of Emerson Electric Company Racine, Wisconsin) which allowed direct access to the underlying CAM. Filter disks of #1 filter paper (Whatman International, United Kingdom) were soaked in 3 mg/ml cortisone acetate (Sigma, St. Louis, Mo.) in a solution of 95% ethanol and water and subsequently air dried under sterile conditions. FGF2 (Life Technologies, Gaithersburg, Md.) was used to grow vessels on the CAMs of 10 day old chick embryos. Sterile filter disks adsorbed with FGF2 dissolved in PBS at 1 μg/ml were placed on growing CAMs. […] At 24 h, test compounds or control vehicle was added directly to CAM topically.
# (§1) CAM tissue directly beneath FGF2-saturated filter disk was resected from embryos treated 48 hours prior with test compound or control. Tissues were washed three times with PBS. Sections were placed in a 35-mm petri dish (Nalge Nunc, Rochester, N.Y.) and examined under a SV6 stereomicroscope (Karl Zeiss, Thornwood, N.Y.) at 50× magnification. Digital images of CAM sections adjacent to filters were collected using a 3-CCD color video camera system (Toshiba America, New York, N.Y.) and analyzed using Image-Pro Plus software (Media Cybernetics, Silver Spring, Md.).
# as §1, with “48 h” for “48 hours”, “with” for “with test”, “analyzed with the” for “analyzed using”
# [5] = system: chick chorioallantoic membrane (CAM); assay: as above; format: in vivo; settings: Table 5; for Mean % Inhibition ± SEM: inhibition of PAR-2 (SEQ ID NO: 3, 0.3 ug/ml) stimulated angiogenesis, inhibitor doses as E12
# PAR-1 [6] = target: T2, PAR-1 (Homo sapiens, UniProt P25116); settings: PAR-1 antagonist, variety of bioassays; cited from earlier work
# T2 sequence (P25116 22-425): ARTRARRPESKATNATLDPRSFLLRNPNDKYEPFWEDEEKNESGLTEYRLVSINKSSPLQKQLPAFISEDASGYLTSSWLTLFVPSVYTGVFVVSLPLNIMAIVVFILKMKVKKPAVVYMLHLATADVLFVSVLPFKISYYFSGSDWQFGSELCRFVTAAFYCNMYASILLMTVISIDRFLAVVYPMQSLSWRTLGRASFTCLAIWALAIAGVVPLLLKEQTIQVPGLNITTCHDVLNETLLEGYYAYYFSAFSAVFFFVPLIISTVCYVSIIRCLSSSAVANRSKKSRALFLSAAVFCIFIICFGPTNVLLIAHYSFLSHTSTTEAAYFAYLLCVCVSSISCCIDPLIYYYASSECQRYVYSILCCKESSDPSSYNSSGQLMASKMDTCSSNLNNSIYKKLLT
# PAR-2 [7] = target: T1, PAR-2; settings: in words; cited from earlier work
# rat aorta = settings: in words; cited from earlier work
# PAR-1 [8] = target: T2, PAR-1; settings: at PAR-1; in words; cited from earlier work
# [9] = system: Human dermal micro-vascular endothelial cells (HDMEC); assay: In vitro 3D sprout angiogenesis (vessel tube length) assay; format: cell-based; settings: agent alone, 1 ug
# Method: Culture of HDMEC on micro-carrier beads: 80% confluent HDMEC (Passage 5-10) were mixed with gelatin-coated Cytodex-3 beads with a ratio of 40 cells per bead. Suspend cells and beads (150-200 beads per well for 24-well plate) with 5 ml EBM+15% normal human serum, mix gently every one hour for first four hours, then leave the mixture culture in CO2 incubator overnight. The next morning, add 10 ml of fresh EBM+15% HS and culture for another three hours. Before experiments, check the culture of EC-beads. Add 500 μl of PBS in a well of 24-well plate, take 100 ul of the EC-bead culture solution, and add it to the PBS, observe and count the number of beads, calculate the concentration of EC-beads. The EC-beads are good for experiments for 48 hours.
# Prepare fibrinogen solution (1 mg/ml) in EBM medium with or without angiogenesis factors or testing factors. For positive control, use 30 ng/ml VEGF+25 ng/ml FGF2. Wash EC-beads with EBM medium for two times and add EC-beads to fibrinogen solution. For each condition, do experiment in triplicates. Mix the EC-beads in fibrinogen solution gently and add 2.5 μl human thrombin (0.05 U/μl) in 1 ml fibrinogen solution, immediately transfer 300 ul to each well of 24-well plate. The fibrinogen solution will polymerize in 5-10 minutes, after 20 minutes, add EBM+20% normal human serum+10 μg/ml Aprotinin. Incubate the plate in CO2 incubator. […]
# [10] = PAR-2 (SEQ ID NO: 3, 0.3 ug/ml) + inhibitor: XT199 10 ug, anti-VII/VIIa 3 ug, PD98059 5 ug, Hirudin 1 U, PAR-2 mAb 3 ug, anti-TF mAb 2 ug
compound,measurement,setting,value
"LSIGRL [LSIGRL-NH2, PAR2 antagonist]",agonistic activity,PAR-2 [1],lack agonistic activity
tc-LIGRLO (tc-LIGRL-{code O}; reading uncertain; also: printed as tc-LIGRLO),activity in the relaxation assay,[2]; compared with SLIGRL,equally active
same,contraction,[2],does not cause contraction
HOOC-S-L-I-G-R-L-NH2 (SLIGRL-NH2; also: 'HOOC-' written at N-terminus) [SEQ ID NO: 4],Mean Endothelial tube length (mm) ± SD,[3],58 ± 4 mm
COc1cccc(-c2cc(=O)c3ccccc3o2)c1N [PD98059],PAR2-induced angiogenesis in the CAM model,[4],blocked
same,Mean Branch points ± SEM,[5]; [10],102 ± 9
same,Mean % Inhibition ± SEM,[5],88 ± 12%
Hirudin,PAR2-induced angiogenesis in the CAM model,[4],not
same,Mean Branch points ± SEM,[5]; [10],174 ± 9
same,Mean % Inhibition ± SEM,[5],3 ± 8%
FGF2: human fibroblast growth factor basic,Mean Endothelial tube length (mm) ± SD,[3],64 ± 5 mm
same,increase in angiogenesis index,[4]; 1 μg of FGF2,2-3 fold
same,Branch Points ± SEM,[4],182 ± 11
same,Mean Number of Branch Points ± SD,[4],198 ± 14
NCC[C@H](NC(=O)[C@H](Cc1ccc(F)c(F)c1)NC(=O)Nc1ccc2c(CN3CCCC3)cn(Cc3c(Cl)cccc3Cl)c2c1)C(=O)NCc1ccccc1 [RWJ-56110],IC50,PAR-1 [6],100 to 500 nM
same,activity as a PAR-2 antagonist,PAR-2 [7],inactive
"FSLLRY [FSLLRY-NH2, PAR2 antagonist]",trypsin relaxant activity,rat aorta,antagonize
same,agonistic activity,PAR-1 [8],lack agonistic activity
HOOC-L-I-G-R-L-O-NH2 (LIGRL-{code O-NH2}; reading uncertain; also: 'HOOC-' written at N-terminus) [SEQ ID NO: 3],Mean Branch points ± SEM,"[5]; PAR-2 agonist alone, 0.3 ug/ml, n = 8",176 ± 14
same,Mean Branch points ± SEM,"[5]; PAR-2 agonist alone, 0.3 ug/ml, n = 8, listed as PAR-2",186 ± 17
HOOC-S-L-I-G-K-V-NH2 (SLIGKV-NH2; also: 'HOOC-' written at N-terminus) [SEQ ID NO: 5],Vessel Length(mm) ± SEM,[9],1.39 ± 0.28 mm
same,Branch Points ± SEM,[4],197 ± 15
same,Mean Number of Branch Points ± SD,[4],205 ± 8
VEGF,Branch Points ± SEM,[4],168 ± 10
"TFLLRN [SEQ ID NO: 6, PAR1 agonist peptide used for comparison]",Vessel Length(mm) ± SEM,[9],0.88 ± 0.08 mm
same,Branch Points ± SEM,[4],101 ± 7
